In experiment [1] the target is T1, TYK2 JH2 (Homo sapiens, UniProt P29597).
T1 construct: purchased DiscoverX (KINOMEscan KdELECT service); host or cells: E. coli BL21-derived (T7 phage display) or HEK-293
The experiment is described as follows: TYK2 JH2 binding assay (KINOMEscan KdELECT competitive binding). Conditions: TYK2 JH2 domain, KINOMEscan KdELECT (Assay A); read-out: Biochemical TYK2_DiscoverX_JH2_BND_Kd. An outline of the steps:
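Kd values come from qPCR measurement of kinase retained on an immobilized-ligand resin after 1 h room-temperature competition with compound in an 11-point, 3-fold series.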

Experiment [2] relates to JAK1/TYK2 pSTAT5 (Tyr694/699) in THP-1 cell line. The experiment is described as follows: IFNa-stimulated JAK1/TYK2 pSTAT5 (Tyr694/699) inhibition cellular assay, AlphaLISA. It counts as cell-based. As to conditions: Homo sapiens; THP-1 cells, IFNa-stimulated, AlphaLISA (Assay B); read-out: Cellular_THP1_IFNa-pSTATS_TYK2. An outline of the steps:
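THP-1 cells (2e4/well in HBSS) were preincubated with compound (8 points, 6-fold steps from 10000 nM final) for 1 h at 37 °C, then stimulated with IFNa (added at 100 ng/mL) for 30 min. Lysate pSTAT5 was read by AlphaLISA at 615 nm. IC50 came from a 4-parameter fit with bottom 0 and Hill −1.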
A general note: In Alpha technology, singlet oxygen from a donor bead excites a nearby acceptor bead.

T1 sequence (P29597 589-875 limits assumed): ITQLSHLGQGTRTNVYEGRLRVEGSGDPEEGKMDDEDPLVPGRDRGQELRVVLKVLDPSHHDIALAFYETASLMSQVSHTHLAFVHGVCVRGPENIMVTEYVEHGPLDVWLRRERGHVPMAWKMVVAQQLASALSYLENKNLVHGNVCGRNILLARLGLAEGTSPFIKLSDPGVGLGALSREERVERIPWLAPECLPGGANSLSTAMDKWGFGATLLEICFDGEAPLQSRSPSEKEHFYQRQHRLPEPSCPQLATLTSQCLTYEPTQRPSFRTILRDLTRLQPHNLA

`CNc1ncc(C#Cc2ncc(OC)cc2F)c2cc(NC(=O)C3CC3)ncc12` [Example 665, N-(5-((3-fluoro-5-methoxypyridin-2-yl)ethynyl)-8-(methylamino)-2,7-naphthyridin-3-yl)cyclopropanecarboxamide]: the Kd in experiment [1] is ≤ 100 nM. The IC50 in experiment [2] was ≤ 500 nM.
In the case of `CNc1ncc(C#Cc2ccc3occc3n2)c2cc(NC(=O)C3CC3)ncc12` [Example 666, N-(5-(furo[3,2-b]pyridin-5-ylethynyl)-8-(methylamino)-2,7-naphthyridin-3-yl)cyclopropanecarboxamide], the Kd in experiment [1] is ≤ 100 nM. Further, the IC50 in experiment [2] is ≤ 500 nM.
On to `CNc1ncc(C#Cc2cc3ccoc3cn2)c2cc(NC(=O)C3CC3)ncc12` [Example 667, N-(5-(furo[2,3-c]pyridin-5-ylethynyl)-8-(methylamino)-2,7-naphthyridin-3-yl)cyclopropanecarboxamide], for which the Kd in experiment [1] is ≤ 100 nM. For the same compound, the IC50 in experiment [2] was ≤ 500 nM.
With `CNc1ncc(C#Cc2ccc3nc(CO)sc3c2)c2cc(NC(=O)C3CC3)ncc12` [Example 668, N-(5-((2-(hydroxymethyl)benzo[d]thiazol-6-yl)ethynyl)-8-(methylamino)-2,7-naphthyridin-3-yl)cyclopropanecarboxamide], in experiment [1], the Kd was ≤ 100 nM. Further, in experiment [2], the IC50 is ≤ 500 nM.
With `CNc1ncc(C#Cc2ccncc2CO)c2cc(NC(=O)C3CC3)ncc12` [Example 669, N-(5-((3-(hydroxymethyl)pyridin-4-yl)ethynyl)-8-(methylamino)-2,7-naphthyridin-3-yl)cyclopropanecarboxamide], the Kd in experiment [1] is ≤ 100 nM. The IC50 in experiment [2] was ≤ 500 nM.
Turning to `CNc1ncc(C#Cc2ccc(NC(C)=O)cc2)c2cc(NC(=O)C3CC3)ncc12` [Example 670, N-(5-((4-acetamidophenyl)ethynyl)-8-(methylamino)-2,7-naphthyridin-3-yl)cyclopropanecarboxamide], in experiment [1], the Kd was ≤ 100 nM. The IC50 in experiment [2] was ≤ 500 nM.
In the case of `CNc1ncc(C#Cc2ccc(-n3ccccc3=O)cc2)c2cc(NC(=O)C3CC3)ncc12` [Example 671, N-(8-(methylamino)-5-((4-(2-oxopyridin-1(2H)-yl)phenyl)ethynyl)-2,7-naphthyridin-3-yl)cyclopropanecarboxamide], the Kd in experiment [1] was ≤ 100 nM. In addition, the IC50 in experiment [2] is ≤ 500 nM.
On to `CNC(=O)c1ccc(C#Cc2cnc(NC)c3cnc(NC(=O)C4CC4)cc23)cc1` [Example 672, 4-((6-(cyclopropanecarboxamido)-1-(methylamino)-2,7-naphthyridin-4-yl)ethynyl)-N-methylbenzamide], for which the Kd in experiment [1] was ≤ 100 nM. For the same compound, the IC50 in experiment [2] was ≤ 500 nM.
With `CNc1ncc(C#Cc2ccc(S(=O)(=O)NC)cc2)c2cc(NC(=O)C3CC3)ncc12` [Example 673, N-(8-(methylamino)-5-((4-(N-methylsulfamoyl)phenyl)ethynyl)-2,7-naphthyridin-3-yl)cyclopropanecarboxamide], the Kd in experiment [1] is ≤ 100 nM. For the same compound, the IC50 in experiment [2] is ≤ 500 nM.
For the compound `CNc1ncc(C#Cc2ccc(N3CCCC3=O)cc2)c2cc(NC(=O)C3CC3)ncc12` [Example 674, N-(8-(methylamino)-5-((4-(2-oxopyrrolidin-1-yl)phenyl)ethynyl)-2,7-naphthyridin-3-yl)cyclopropanecarboxamide], the Kd in experiment [1] is ≤ 100 nM. In experiment [2], the IC50 is ≤ 500 nM.
As for `CNc1ncc(C#Cc2ccc(N3CCOC3=O)cc2)c2cc(NC(=O)C3CC3)ncc12` [Example 675, N-(8-(methylamino)-5-((4-(2-oxooxazolidin-3-yl)phenyl)ethynyl)-2,7-naphthyridin-3-yl)cyclopropanecarboxamide], in experiment [1], the Kd was ≤ 100 nM. Besides, in experiment [2], the IC50 was ≤ 500 nM.
In the case of `CNc1ncc(C#Cc2nc3ccc(OC)cn3n2)c2cc(NC(=O)C3CC3)ncc12` [Example 676, N-(5-((6-methoxy-[1,2,4]triazolo[1,5-a]pyridin-2-yl)ethynyl)-8-(methylamino)-2,7-naphthyridin-3-yl)cyclopropanecarboxamide], the Kd in experiment [1] was ≤ 100 nM. Also, the IC50 in experiment [2] was ≤ 500 nM.
For the compound `CNc1ncc(C#Cc2ccc(OCC3COC3)cc2)c2cc(NC(=O)C3CC3)ncc12` [Example 677, N-(8-(methylamino)-5-((4-(oxetan-3-ylmethoxy)phenyl)ethynyl)-2,7-naphthyridin-3-yl)cyclopropanecarboxamide], the Kd in experiment [1] was ≤ 100 nM. Moreover, the IC50 in experiment [2] is ≤ 500 nM.
As to `CNc1ncc(C#Cc2ccc(OCC3COC3)cn2)c2cc(NC(=O)C3CC3)ncc12` [Example 678, N-(8-(methylamino)-5-((5-(oxetan-3-ylmethoxy)pyridin-2-yl)ethynyl)-2,7-naphthyridin-3-yl)cyclopropanecarboxamide], in experiment [1], the Kd is ≤ 100 nM. Besides, the IC50 in experiment [2] was ≤ 500 nM.
As for `CNc1ncc(C#Cc2ccc(OCC3CN(C(C)=O)C3)cc2)c2cc(NC(=O)C3CC3)ncc12` [Example 679, N-(5-((4-((1-acetylazetidin-3-yl)methoxy)phenyl)ethynyl)-8-(methylamino)-2,7-naphthyridin-3-yl)cyclopropanecarboxamide], the Kd in experiment [1] was ≤ 100 nM. Also, in experiment [2], the IC50 is ≤ 500 nM.
On the same counts, the results for `CNc1ncc(C#Cc2cc3ccccn3n2)c2cc(NC(=O)C3CC3)ncc12` [Example 680, N-(8-(methylamino)-5-(pyrazolo[1,5-a]pyridin-2-ylethynyl)-2,7-naphthyridin-3-yl)cyclopropanecarboxamide] are ≤ 100 nM and ≤ 500 nM.
For `CNc1ncc(C#Cc2ccc3nnn(C(C)C)c3c2)c2cc(NC(=O)C3CC3)ncc12` [Example 681, N-(5-((1-isopropyl-1H-benzo[d][1,2,3]triazol-6-yl)ethynyl)-8-(methylimino)-2,7-naphthyridin-3-yl)cyclopropanecarboxamide], the Kd in experiment [1] was ≤ 100 nM. The IC50 in experiment [2] was ≤ 500 nM.
On the same counts, the results for `CNc1ncc(C#Cc2ccc3nnn(CCOC)c3c2)c2cc(NC(=O)C3CC3)ncc12` [Example 682, N-(5-((1-(2-methoxyethyl)-1H-benzo[d][1,2,3]triazol-6-yl)ethynyl)-8-(methylamino)-2,7-naphthyridin-3-yl)cyclopropanecarboxamide] are ≤ 100 nM and ≤ 500 nM.
As for `CCn1nnc2ccc(C#Cc3cnc(NC)c4cnc(NC(=O)C5CC5)cc34)cc21` [Example 683, N-(5-((1-ethyl-1H-benzo[d][1,2,3]triazol-6-yl)ethynyl)-8-(methylamino)-2,7-naphthyridin-3-yl)cyclopropanecarboxamide], the Kd in experiment [1] was ≤ 100 nM. Also, the IC50 in experiment [2] is ≤ 500 nM.
As for `CNc1ncc(C#Cc2ccc3nnn(CC(C)(C)O)c3c2)c2cc(NC(=O)C3CC3)ncc12` [Example 684, N-(5-((1-(2-hydroxy-2-methylpropyl)-1H-benzo[d][1,2,3]triazol-6-yl)ethynyl)-8-(methylamino)-2,7-naphthyridin-3-yl)cyclopropanecarboxamide], in experiment [1], the Kd is ≤ 100 nM. The IC50 in experiment [2] was ≤ 500 nM.
For the compound `CNc1ncc(C#Cc2cc3c(cc2F)nnn3C)c2cc(NC(=O)C3CC3)ncc12` [Example 685, N-(5-((5-fluoro-1-methyl-1H-benzo[d][1,2,3]triazol-6-yl)ethynyl)-8-(methylamino)-2,7-naphthyridin-3-yl)cyclopropanecarboxamide], the Kd in experiment [1] is ≤ 100 nM. In addition, in experiment [2], the IC50 is ≤ 500 nM.
The matching figures for `CNc1ncc(C#Cc2ccc3nnn(CCC#N)c3c2)c2cc(NC(=O)C3CC3)ncc12` [Example 686, N-(5-((1-(2-cyanoethyl)-1H-benzo[d][1,2,3]triazol-6-yl)ethynyl)-8-(methylamino)-2,7-naphthyridin-3-yl)cyclopropanecarboxamide]: ≤ 100 nM and ≤ 500 nM.
On the same counts, the results for `CNc1ncc(C#Cc2ccc3nnn(C4CC4)c3c2)c2cc(NC(=O)C3CC3)ncc12` [Example 687, N-(5-((1-cyclopropyl-1H-benzo[d][1,2,3]triazol-6-yl)ethynyl)-8-(methylimino)-2,7-naphthyridin-3-yl)cyclopropanecarboxamide] are ≤ 100 nM and ≤ 500 nM.
In the case of `CNc1ncc(C#Cc2ccc3nnn(CCCOC)c3c2)c2cc(NC(=O)C3CC3)ncc12` [Example 688, N-(5-((1-(3-methoxypropyl)-1H-benzo[d][1,2,3]triazol-6-yl)ethynyl)-8-(methylamino)-2,7-naphthyridin-3-yl)cyclopropanecarboxamide], the Kd in experiment [1] is ≤ 100 nM. Moreover, in experiment [2], the IC50 is ≤ 500 nM.
As to `CNc1ncc(C#Cc2cc3c(cn2)nnn3C)c2cc(NC(=O)C3CC3)ncc12` [Example 689, N-(5-((1-methyl-1H-[1,2,3]triazolo[4,5-c]pyridin-6-yl)ethynyl)-8-(methylamino)-2,7-naphthyridin-3-yl)cyclopropanecarboxamide], the Kd in experiment [1] is ≤ 100 nM. Moreover, the IC50 in experiment [2] was ≤ 500 nM.
Consider `CNc1ncc(C#Cc2ccc(O[C@@H]3CCOC3)cc2)c2cc(NC(=O)C3CC3)ncc12` [Example 690, (R)—N-(8-(methylamino)-5-((4-((tetrahydrofuran-3-yl)oxy)phenyl)ethynyl)-2,7-naphthyridin-3-yl)cyclopropanecarboxamide], for which the Kd in experiment [1] was ≤ 100 nM. In addition, the IC50 in experiment [2] was ≤ 500 nM.

The values above are taken from US20240025906A1 (NEURON23, INC., priority 2022, published 2024).
